Here are results for eleven compounds from patent publication US12617783B2, “Heterocyclic GLP-1R agonists” (BIOMEA FUSION, INC., priority 2024, dated 2026).

As a reminder, the EC50 is the midpoint of the concentration-response curve.

A value given as a limit tells only on which side of the number the result lay.

For the first experiment, the target named is T1, human GLP-1R (Homo sapiens, UniProt P43220).
T1 construct: host or cells: HEK293
T1 sequence (P43220 24-463): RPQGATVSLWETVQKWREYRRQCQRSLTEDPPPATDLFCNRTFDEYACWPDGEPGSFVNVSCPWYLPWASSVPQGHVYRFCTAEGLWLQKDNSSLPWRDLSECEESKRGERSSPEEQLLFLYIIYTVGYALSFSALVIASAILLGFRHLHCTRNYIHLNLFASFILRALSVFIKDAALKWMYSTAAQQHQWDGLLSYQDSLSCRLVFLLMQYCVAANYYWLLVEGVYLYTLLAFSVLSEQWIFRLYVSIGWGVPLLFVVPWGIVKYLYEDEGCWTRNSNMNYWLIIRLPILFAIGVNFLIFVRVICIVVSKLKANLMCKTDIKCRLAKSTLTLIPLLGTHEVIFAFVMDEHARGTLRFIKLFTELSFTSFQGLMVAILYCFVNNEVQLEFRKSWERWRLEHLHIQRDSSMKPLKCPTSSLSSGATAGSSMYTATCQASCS
In words: GLP-1R cAMP assay (Example B1a, HTRF, 30 min at room temperature). It counts as cell-based. The conditions noted are these: cAMP accumulation in HEK293 expressing human GLP-1R, no BETP, 30 min room temperature (Method B1a, compounds ID 1-609), Table 1; read-out: EC50. The method, boiled down:
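Competitive HTRF read-out of cAMP after 30 min room-temperature stimulation, BETP absent, of human GLP-1R-HEK293 cells (1,000/well) in HEPES buffer with 500 μM IBMX and 0.1% BSA. Activation normalised to GLP-1(7-37) positive control. EC50 from 4-parameter non-linear regression.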
For orientation: Cyclic AMP is a second messenger, typically raised through Gs and lowered through Gi signalling.
As for `Cc1cc(-n2nc3c(c2-n2ccn(-c4ccc5c(cnn5C)c4F)c2=O)[C@@H]2CC[C@H](C3)N2C(=O)c2cc3ccc([C@@H]4CCOC(C)(C)C4)cc3nc2[C@@]2(c3noc(=O)[nH]3)C[C@@H]2C)cc(C)c1F` [Compound 319, 3-[(1R,2S)-1-[7-[(4R)-2,2-dimethyltetrahydropyran-4-yl]-3-[(1S,8R)-4-(4-fluoro-3,5-dimethyl-phenyl)-3-[3-(4-fluoro-1-methyl-indazol-5-yl)-2-oxo-imidazol-1-yl]-4,5,11-triazatricyclo[6.2.1.02,6]undeca-2,5-diene-11-carbonyl]-2-quinolyl]-2-methyl-cyclopropyl]-4H-1,2,4-oxadiazol-5-one], the EC50 was 469 nM.

In the case of `Cc1cc(-n2nc3c(c2-n2ccn(-c4ccc5c(cnn5C)c4F)c2=O)[C@@H]2CC[C@H](C3)N2C(=O)c2cc3cc([C@H]4COC(C)(C)C4)ccc3n2[C@@]2(c3noc(=O)[nH]3)C[C@@H]2C)cc(C)c1F` [Compound 423, 3-[(1S,2S)-1-[5-[(3S)-5,5-dimethyltetrahydrofuran-3-yl]-2-[(1S,8R)-4-(4-fluoro-3,5-dimethyl-phenyl)-3-[3-(4-fluoro-1-methyl-indazol-5-yl)-2-oxo-imidazol-1-yl]-4,5,11-triazatricyclo[6.2.1.02,6]undeca-2,5-diene-11-carbonyl]indol-1-yl]-2-methyl-cyclopropyl]-4H-1,2,4-oxadiazol-5-one], the EC50 came to 2120 nM.

On to `Cc1cc(-n2nc3c(c2-n2ccn(-c4ccc5c(cnn5C)c4F)c2=O)[C@H]2CC[C@@H](C3)N2C(=O)c2cc3cc([C@@H]4CCOC5(CC5)C4)ccc3n2[C@]2(c3noc(=O)[nH]3)C[C@@H]2C)cc(C)c1F` [Compound 530, 3-[(1R,2S)-1-[2-[(1R,8S)-4-(4-fluoro-3,5-dimethyl-phenyl)-3-[3-(4-fluoro-1-methyl-indazol-5-yl)-2-oxo-imidazol-1-yl]-4,5,11-triazatricyclo[6.2.1.02,6]undeca-2,5-diene-11-carbonyl]-5-[(7R)-4-oxaspiro[2.5]octan-7-yl]indol-1-yl]-2-methyl-cyclopropyl]-4H-1,2,4-oxadiazol-5-one], for which the EC50 was no less than 10000 nM.

As to `CNC(=O)Cc1ccc(-n2ccn(-c3c4c(nn3-c3cc(C)c(F)c(C)c3)C[C@H]3CCC[C@@H]4N3C(=O)c3cc4cc([C@H]5CCOC(C)(C)C5)ccc4n3[C@@]3(c4noc(=O)[nH]4)C[C@@H]3C)c2=O)cc1` [Compound 544, 2-[4-[3-[(1S,8R)-12-[5-[(4S)-2,2-dimethyltetrahydropyran-4-yl]-1-[(1S,2S)-2-methyl-1-(5-oxo-4H-1,2,4-oxadiazol-3-yl)cyclopropyl]indole-2-carbonyl]-4-(4-luoro-3,5-dimethyl-phenyl)-f4,5,12-triazatricyclo[6.3.1.02,6]dodeca-2,5-dien-3-yl]-2-oxo-imidazol-1-yl]phenyl]-N-methyl-acetamide], the EC50 is no less than 10000 nM.

Turning to `Cc1cc(-n2nc3c(c2-n2ccn(-c4cc(F)c5c(cnn5C)c4F)c2=O)[C@@H]2COC[C@H](C3)N2C(=O)c2cc3cc([C@H]4CCOC(C)(C)C4)ccc3n2[C@@]2(c3noc(=O)[nH]3)C[C@@H]2C)cc(C)c1F` [Compound 224, 3-[(1S,2S)-1-[2-[(1R,8S)-3-[3-(4,7-difluoro-1-methyl-indazol-5-yl)-2-oxo-imidazol-1-yl]-4-(4-fluoro-3,5-dimethyl-phenyl)-10-oxa-4,5,12-triazatricyclo[6.3.1.02,6]dodeca-2,5-diene-12-carbonyl]-5-[(4S)-2,2-dimethyltetrahydropyran-4-yl]indol-1-yl]-2-methyl-cyclopropyl]-4H-1,2,4-oxadiazol-5-one], the EC50 was 212 nM.

`Cc1cc(-n2nc3c(c2-n2ccn(-c4ccc5c(cnn5C)c4F)c2=O)[C@@H]2CC[C@H](C3)N2C(=O)c2cc3cc([C@H]4CCOC(C)(C)C4)ccc3n2[C@@]2(C(=O)NS(=O)(=O)C3CC3)C[C@@H]2C)cc(C)c1F` [Compound 204, cis-(1S,2S)-N-cyclopropylsulfonyl-1-[5-[(4S)-2,2-dimethyltetrahydropyran-4-yl]-2-[(1S,8R)-4-(4-fluoro-3,5-dimethyl-phenyl)-3-[3-(4-fluoro-1-methyl-indazol-5-yl)-2-oxo-imidazol-1-yl]-4,5,11-triazatricyclo[6.2.1.02,6]undeca-2,5-diene-11-carbonyl]indol-1-yl]-2-methyl-cyclopropanecarboxamide]: the EC50 is greater than 10000 nM.

Another experiment addresses T1, human GLP-1R. Kind of experiment: GLP-1R cAMP assay (Example B1b, HTRF, 30 min at 37°). The conditions noted are these: cAMP accumulation in HEK293 expressing human GLP-1R, no BETP, 30 min at 37° (Method B1b), Table 1. Format: cell-based. As for the experimental part: Assay was carried out with HEK293 expressing human GLP-1R using HTRF assay, developed by Wuxi Apptec. The method is a competitive assay between native cAMP produced by the cells and exogenous cAMP labeled with a proprietary dye d2. The tracer binding is visualized by a mAb anti-cAMP labeled with Cryptate. The signal (i.e. energy transfer) is inversely proportional to the concentration of CAMP in either standard or experimental sample. Compounds were tested in the absence of BETP. Ten microliter of cell suspension in assay buffer (5 mM HEPES, 500 μM IBMX, 0.1% BSA) were added to each well (1,000 cells per well) in a low volume 384-well plate for the assay. Serially diluted compounds were added in 100 nL volume to duplicate wells, by Labcyte Echo. GLP-1 (7-37) was used as positive control. Assay plate was incubated for 30 minutes at 37°. Stock of cAMP Detection Solution was prepared by mixing 38 parts of cAMP lysis buffer, 1 part of cAMP-D2, 1 part of anti-cAMP cryptate reagent (Cisbio #62AM4PEJ). Ten microliter of the cAMP Detection Solution was added to each well, and the assay plate was incubated for 1 hour at room temperature in the dark. Plates were read on Envision plate reader. The data were analyzed by ScreenUltra in Dotmatics, with % activation expressed using following formula: (Signal ratio […]*10000−negative control)/(postive control−negative control)*100. Dose response curves were plotted and EC50 values calculated by non-linear regression using 4-parameter fit. The potency (EC50) values for cAMP accumulation in HEK293 cells are reported in the Table 1 below (for compounds ID 610-708).
`Cc1cc(-n2nc3c(c2-n2ccn(-c4ccc5cnccc5c4F)c2=O)[C@@H]2CCC[C@H](C3)N2C(=O)c2cc3cc([C@H]4CCOC5(CC5)C4)ccc3n2[C@@]2(c3noc(=O)[nH]3)C[C@@H]2C)cc(C)c1F` [Compound 614, 3-((1S,2S)-1-(2-((4S,8R)-2-(4-fluoro-3,5-dimethylphenyl)-3-(3-(5-fluoroisoquinolin-6-yl)-2-oxo-2,3-dihydro-1H-imidazol-1-yl)-4,5,6,7,8,9-hexahydro-2H-4,8-epiminocycloocta [c]pyrazole-10-carbonyl)-5-((S)-4-oxaspiro[2.5]octan-7-yl)-1H-indol-1-yl)-2-methylcyclopropyl)-1,2,4-oxadiazol-5 (4H)-one] came in with a concentration giving a half-maximal response (EC50) of 0.0006 µM.

`Cc1cc(-n2nc3c(c2-n2ccn(-c4ccc5c(cnn5C)c4F)c2=O)[C@@H]2CCC[C@H](C3)N2C(=O)c2cc3cc(C4CCOC(C)(C)C4)cc(F)c3n2[C@@]2(c3noc(=O)[nH]3)C[C@@H]2C)cc(C)c1F` (stereo partly drawn) [Compound 615, 3-((1S,2S)-1-(5-(2,2-dimethyltetrahydro-2H-pyran-4-yl)-7-fluoro-2-((4S,8R)-3-(3-(4-fluoro-1-methyl-1H-indazol-5-yl)-2-oxo-2,3-dihydro-1H-imidazol-1-yl)-2-(4-fluoro-3,5-dimethylphenyl)-4,5,6,7,8,9-hexahydro-2H-4,8-epiminocycloocta [c]pyrazole-10-carbonyl)-1H-indol-1-yl)-2-methylcyclopropyl)-1,2,4-oxadiazol-5 (4H)-one] showed an EC50 of 0.0142 µM.

With `Cc1cc(-n2nc3c(c2-n2ccn(-c4ccc5c(cnn5C)c4F)c2=O)[C@@H]2CCC[C@H](C3)N2C(=O)c2cc3cc([C@H]4CCOC(C)(C)C4)cc(F)c3n2[C@@]2(c3noc(=O)[nH]3)C[C@@H]2C)cc(C)c1F` [Compound 707, 3-((1S,2S)-1-(5-((S)-2,2-dimethyltetrahydro-2H-pyran-4-yl)-7-fluoro-2-((4S,8R)-3-(3-(4-fluoro-1-methyl-1H-indazol-5-yl)-2-oxo-2,3-dihydro-1H-imidazol-1-yl)-2-(4-fluoro-3,5-dimethylphenyl)-4,5,6,7,8,9-hexahydro-2H-4,8-epiminocycloocta [c]pyrazole-10-carbonyl)-1H-indol-1-yl)-2-methylcyclopropyl)-1,2,4-oxadiazol-5 (4H)-one], the response was half-maximal at 0.0025 µM (EC50).

Turning to `CNC(=O)Cc1ccc(-n2ccn(-c3c4c(nn3-c3cc(C)c(F)c(C)c3)C[C@H]3CCC[C@@H]4N3C(=O)c3cc4cc([C@H]5CCOC(C)(C)C5)ccc4n3[C@@]3(c4noc(=O)[nH]4)C[C@@H]3C)c2=O)cc1F` [Compound 611, 2-(4-(3-((4S,8R)-10-(5-((S)-2,2-dimethyltetrahydro-2H-pyran-4-yl)-1-((1S,2S)-2-methyl-1-(5-oxo-4,5-dihydro-1,2,4-oxadiazol-3-yl)cyclopropyl)-1H-indole-2-carbonyl)-2-(4-fluoro-3,5-dimethylphenyl)-4,5,6,7,8,9-hexahydro-2H-4,8-epiminocycloocta [c]pyrazol-3-yl)-2-oxo-2,3-dihydro-1H-imidazol-1-yl)-2-fluorophenyl)-N-methylacetamide], the midpoint of the response, the EC50, lay at 0.0051 µM.

In the case of `Cc1cc(-n2nc3c(c2-n2ccn(-c4ccc5c(cnn5C)c4F)c2=O)[C@@H]2CC[C@H](C3)N2C(=O)c2c(F)c3cc(C4CCOC(C)(C)C4)ccc3n2[C@@]2(c3noc(=O)[nH]3)C[C@@H]2C)cc(C)c1F` (stereo in doubt) [Compound 713, 3-[(1S,2S)-1-[5-[(4R)-2,2-dimethyltetrahydropyran-4-yl]-3-fluoro-2-[(1S,8R)-4-(4-fluoro-3,5-dimethyl-phenyl)-3-[3-(4-fluoro-1-methyl-indazol-5-yl)-2-oxo-imidazol-1-yl]-4,5,11-triazatricyclo[6.2.1.02,6]undeca-2,5-diene-11-carbonyl]indol-1-yl]-2-methyl-cyclopropyl]-4H-1,2,4-oxadiazol-5-one], a half-maximal effect (EC50) was put at 0.004 µM.
